In test [1] the target is T1, 7-dehydrocholesterol reductase (Homo sapiens, UniProt Q9UBM7).
T1 sequence (Q9UBM7 whole entry): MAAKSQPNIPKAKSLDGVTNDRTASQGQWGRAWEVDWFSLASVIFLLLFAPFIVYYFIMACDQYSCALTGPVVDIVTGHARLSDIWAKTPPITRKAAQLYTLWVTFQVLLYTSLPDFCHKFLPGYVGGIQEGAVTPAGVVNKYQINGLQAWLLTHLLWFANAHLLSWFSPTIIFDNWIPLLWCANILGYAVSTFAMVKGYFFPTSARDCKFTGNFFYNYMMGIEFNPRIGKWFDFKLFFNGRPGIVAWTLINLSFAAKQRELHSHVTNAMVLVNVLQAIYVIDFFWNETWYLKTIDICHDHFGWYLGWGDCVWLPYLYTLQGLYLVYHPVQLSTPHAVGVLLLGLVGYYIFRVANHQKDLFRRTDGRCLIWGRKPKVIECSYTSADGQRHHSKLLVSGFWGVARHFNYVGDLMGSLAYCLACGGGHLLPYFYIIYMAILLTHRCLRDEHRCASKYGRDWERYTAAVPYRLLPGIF
In words: Growth inhibition of multidrug resistant MCF7/Adr cells containing antiestrogen binding sites.

The target in test [2] is T1, 7-dehydrocholesterol reductase. In words: Growth inhibition of MCF7 cells expressing ER and antiestrogen binding sites.
For test [3] the target is unchanged. In words: Growth inhibition of MDA-MB-231 cells containing antiestrogen binding sites.
Test [4] shares this target. In words: Growth inhibition of MDA-MB-435 cells containing antiestrogen binding sites.

SMILES strings stand for the structures.

As usually defined, the IC50 is the concentration at which inhibition is half-maximal. In the case of `CC/C(=C(/c1ccc(O)cc1)c1ccc(OCCN(C)CCOCCOCCO/N=C/c2ccc(O)c(C(=O)NCN[C@H]3C[C@H](O[C@H]4C[C@](O)(C(=O)CO)Cc5c(O)c6c(c(O)c54)C(=O)c4c(OC)cccc4C6=O)O[C@@H](C)[C@H]3O)c2)cc1)c1ccccc1`, the IC50 in test [1] was determined as 60 nM; in test [2], 30 nM; in test [3] it was 30 nM; in test [4], 40 nM.

`COc1cccc2c1C(=O)c1c(O)c3c(c(O)c1C2=O)C[C@@](O)(C(=O)CO)C[C@@H]3O[C@H]1C[C@H](NCNC(=O)c2ccccc2O)[C@H](O)[C@H](C)O1`: the IC50 in test [1] is 2000 nM; in test [2], 70 nM; in test [3] it was 80 nM; in test [4], 50 nM.

For the origin of these results see BindingDB's records for doi:10.1021/jm049496b (University of Colorado, 2004).
